The values that follow come from article PMC10961089, “Epidermal growth factor receptor inhibition potentiates chemotherapeutics‐mediated sensitization of metastatic breast cancer stem cells” (Cancer Reports, 2024).

For one experiment, the system named is MDA‐MB‐468. Kind of experiment: MTT cytotoxicity assay in MDA-MB-468. Format: cell-based, human. How it is done: TNBC cell lines (ER^−, PR^−, HER2^−)—MDA‐MB‐231 (ATCC HTB‐26) and MDA‐MB‐468 (ATCC HTB‐132) were procured from ATCC and cultured in Roswell Park Memorial Institute Media (RPMI‐1640) and Dulbecco's Modified Eagle's Medium (DMEM), respectively, supplemented with 10% FBS and 1% Penicillin–Streptomycin solution. Cells were maintained at 5% CO2 at 37°C in a humid atmosphere.[6], [26] The control cell line, Human Embryonic Kidney—HEK‐293 (ATCC CRL‐3216) was also obtained from ATCC and cultured in DMEM.[5], [25]
To evaluate the cytotoxicity profile of the potential EGFR inhibitors (compounds) against TNBC cell lines—MDA‐MB‐231, MDA‐MB‐468, and control cell line HEK293, cells were seeded at a cell density of 5 × 10^3 cells/well in complete medium onto 96‐well plates. Here, the non‐tumoral human embryonic kidney (HEK293) epithelial cells have been utilized as a control cell line to compare the IC50 values of the compounds between cancerous and non‐cancerous cell lines with a big therapeutic window. The use of HEK293 cells as compared to other non‐cancerous cell lines are easy to maintain in culture and the results obtained from HEK293 are highly reproducible and consistent.[27] Briefly, the cells were incubated at 37°C for 12 h to attain morphology. After 12 h, cells were serum starved by replacing the complete media with media containing 2% FBS to synchronize the cells. Post‐12 h of synchronization, cells were treated with an increasing concentration (0.1, 1, 10, 100 μM) of all the compounds (1a, 1b, 1c, 1d, 1e, 1f, 1g, 1h, 1i, 1j, 1k). Separately, TNBC cells were treated with increasing concentration (0.01, 0.1, 1 μM) of Doxorubicin (Sigma‐Aldrich, St Louis, MO, USA) in presence of the selected compounds (1c, 1e, 1g, 1h, 1j, and 1k) at 5 μM concentration or combination of selected compounds (1c, 1e, 1g, 1h, 1j, and 1k) at increasing concentration (1, 2.5, 5, 10 μM) in presence of Doxorubicin (0.01 μM) for 48 h. In addition, the CD24^+‐breast cancer cells and CD24^−/CD44^+‐breast CSC populations, being sorted by Magnetic Activated Cell Sorting (MACS) from MDA‐MB‐231 cells as described previously,[6] were also treated with increasing concentrations of Doxorubicin (0.01–1 μM), in the presence or absence of 1e (10–30 μM), or PD153035 (10 μM) (Sigma‐Aldrich, St Louis, MO, USA). MTT assay was performed to evaluate the cytotoxicity of these compounds against the TNBC cell lines, and the sorted populations as described previously.[6] All the experiments were performed thrice and the IC50 values of the compounds and Doxorubicin were calculated using GraphPad Prism software version 9 (San Diego, CA, USA). Similarly, the percent inhibition of the sorted cell populations by chemotherapeutic drug, doxorubicin in the absence/presence of potent compound 1e or standard EGFR inhibitor, PD153035 was evaluated utilizing GraphPad Prism Version 9 (San Diego, CA, USA).

Experiment [1] deals with CD24^+‐breast cancer cells sorted from MDA‐MB‐231. As to the kind of experiment: MTT assay in sorted breast cancer cells. Format: cell-based, human. Particulars: doxorubicin 0.01 μM + 1e 5 μM vs doxorubicin 0.01 μM alone. How it is done:
To evaluate the cytotoxicity profile of the potential EGFR inhibitors (compounds) against TNBC cell lines—MDA‐MB‐231, MDA‐MB‐468, and control cell line HEK293, cells were seeded at a cell density of 5 × 10^3 cells/well in complete medium onto 96‐well plates. Here, the non‐tumoral human embryonic kidney (HEK293) epithelial cells have been utilized as a control cell line to compare the IC50 values of the compounds between cancerous and non‐cancerous cell lines with a big therapeutic window. The use of HEK293 cells as compared to other non‐cancerous cell lines are easy to maintain in culture and the results obtained from HEK293 are highly reproducible and consistent.[27] Briefly, the cells were incubated at 37°C for 12 h to attain morphology. After 12 h, cells were serum starved by replacing the complete media with media containing 2% FBS to synchronize the cells. […] All the experiments were performed thrice and the IC50 values of the compounds and Doxorubicin were calculated using GraphPad Prism software version 9 (San Diego, CA, USA). Similarly, the percent inhibition of the sorted cell populations by chemotherapeutic drug, doxorubicin in the absence/presence of potent compound 1e or standard EGFR inhibitor, PD153035 was evaluated utilizing GraphPad Prism Version 9 (San Diego, CA, USA).

Experiment [2] has as its system human CD44, ALDH1A1, Fibronectin, N‐Cadherin, Vimentin in tumor tissue. As to the kind of experiment: qRT-PCR of human CSC/EMT genes in tumor tissues. It counts as in vivo, C57BL/6 mice. How it is done: Additionally, total RNA was isolated from tumor tissues and utilized for cDNA synthesis (Thermo Scientific, Massachusetts, USA). To determine the transcriptional regulation of expression of EMT genes in tumor tissues subjected to various treatment regimes, quantitative real‐time PCR (qRT‐PCR) analysis was performed as described previously[28] using human gene‐specific forward and reverse primers of EMT genes. Amplification of Eukaryotic 18S rRNA served as an internal control and was utilized to calculate the fold change in expression.[29]
Animal studies have been carried out with the prior approval of the Institutional Animal Ethics Committee (IICT/IAEC/025/2023). C57BL/6 female mice of age 6–8 weeks (N = 35) were initially immunosuppressed with cyclophosphamide (50 mg/kg of body weight, i.p) on alternate days for 2 weeks. For generating a preclinical orthotopic xenograft tumor model, 2 × 10^6 GFP expressing sorted stable CD24^+‐breast cancer cells and CD24^−/CD44^+‐breast CSCs were orthotopically xeno‐transplanted subcutaneously at the fourth mammary fat pad of immune‐suppressed mice (n = 5/group). Subsequently, intratumoral administration of Doxorubicin at a low dose (2.5 mg/kg of body weight), high dose (10 mg/kg of body weight), and/or combinatorial treatment of the potent EGFR inhibitor, compound 1e (50 mg/kg of body weight) or the commercial EGFR inhibitor, PD153035 (50 mg/kg of body weight) with a low dose of doxorubicin was performed to the palpable tumors of breast CSCs at day‐3 post‐transplantation.

Regarding `c1cncc(C(c2c[nH]c3ccccc23)c2c[nH]c3ccccc23)c1` [1e], in the experiment on MDA‐MB‐468 (MDA-MB-468, versus Doxorubicin alone), the “decrease in the IC50 of Doxorubicin in the presence of the compound” value was determined as 10 fold. The 50% inhibitory concentration (IC50) with MDA‐MB‐468 (compound alone, MTT, 48 h, read-out: IC50 (μM) in MDA‐MB‐468 (mean ± SD)) is 36 ± 5.91 µM. Also, the “increase of percent inhibition of cell proliferation versus doxorubicin alone” value in experiment [1] is recorded as 1.8 folds. Besides, the “expression level of human CD44 in tumor tissue” value in experiment [2] (with doxorubicin low dose vs low dose doxorubicin alone) is recorded as “significantly decreased”. The “expression of human mesenchymal genes ALDH1A1, Fibronectin, N‐Cadherin, Vimentin” value in experiment [2] (with low dose of doxorubicin, CSC xenograft) is listed as “significantly decreased”.
